Reference: patent US20100227827A1, “METHOD OF INCREASING TRYPTOPHAN AND NICOTINAMIDE LEVELS IN VIVO” (priority 2006, published 2010)
Where “and” joins values, the source holds several entries; their conditions need not be identical. Equal values may be shown once. Where a name gives a salt, the structure may show the parent alone. Marks after values point to notes of the source that are not given here. Blank lines part the entries; values can stand above or below the compound they belong to.

Assays:
[1] = Single high dose quinic acid time study, serum HPLC; format: in vivo; conditions: human
Protocol: Serum samples of 0.2 and 30 ml were collected from blood, and precipitated with either ethanol or trichloroacetic acid (TCA). After clean-up the supernatants were dried (ethanol precipitated) or used directly. A standard curve was prepared using quinic acid (Sigma) dissolved in distilled water and obeyed the equation y=6012.8x−24698; 20 μl injections of solutions between 0-25 mg/ml were used.
A apparently healthy volunteer drank 6 gm of quinic acid ammonium chelate (Quinmax™) dissolved in 300 ml water over a 15 min period, samples were collected, and then about 40 ml of peripheral blood (4-red topped vacutainers) were allowed to clot at room temperature to prepare serum samples by centrifugation. The serum sampling points were 0.7 hr, 1.7 hr, 2.7 hr, 3.7 hr, 10.5 hr 12.5 hr, hr, 28 hr and 44 hr. 30 ml serum samples were precipitated with 50% ethanol, taken to dryness under a stream of air, and redissolved in 1 ml of methanol for simultaneous HPLC analysis of quinic acid and hippuric acid. The data were reported as quinic acid present in 30 ml of serum. The column used for this experiment was a C18 150×4.6 mm. The mobile phase was 0.1% trifluoroacetic (TFA). The UV detector was set at 220 nm and quinic acid eluted with a retention of 2.26 min and hippuric acid at 8.3 min. Sensitivity of the method was about 1/30=0.033 mg quinic acid/ml serum.
A single high dose of 6000 mg was administered orally to a subject, and then 30 ml serum samples were prepared from whole blood samples taken from 0.7 to 44 hours after exposure. As serum samples were precipitated with ethanol and redissolved in 1 ml […], this allowed for a 30-fold increase in concentration of any quinic acid present in each blood sample, rendering the method extremely sensitive to even small amounts of quinic acid.

[2] = Urinary quinic acid, hippuric acid, tryptophan and nicotinamide by HPLC; format: in vivo, human; conditions: over 9 months, Table 4 and text calculations
Protocol: Blood samples were collected by venal puncture using vacutainers (red top, 10 ml) usually in the morning (a.m.) after 12 hours of fasting. Serum was separated from the blood clot after setting 2 hr on the bench top before centrifugation for 10 min at 1500×g. Sera prepared in this manner were stored at +4° C. until biochemical analysis usually within 1-30 days of collection. Urine samples were collected as a random 50 ml sample in the A.M. during the treatment and follow-up (after treatment for 8 months) periods. Urine was spun at 5000×g for 15 min and the supernatant stored at +4° C. until analyzed within 1 month of collection. After the first analysis all samples were further stored at −20° C. and used for repeat determinations over time. Trial design for the clinical evaluation of Aqua Bimini™ (quinic acid ammonium chelate) was carried out at Lund University beginning Apr. 28, 2006. […] Repeat serum and urine samples were collected throughout the trial period and then pooled into groups for analysis as 6 weeks before (baseline), 4 weeks of intervention (treatment, 36 days) and 8 months dry-out (no treatment). Urine samples were mixed with 1:2:4 v/v/v of: aqueous urine:95% ethanol:ethyl acetate for 10 min with vigorous shaking. The ethyl acetate layer was allowed to separate with gravity at room temperature, and then it was removed with a pipette and evaporated with an air stream to dryness in a vacuum hood. In this manner 1-2 ml of urine were reconstituted in 0.2 ml water or ethanol which represented a 5-10 fold increase in concentration. […] The urine samples were diluted 1:2:4 v/v/v with ethanol and ethyl acetate, and then the ethyl acetate fraction dried, solubilized in 0.2 ml water and used for HPLC analyses with 20 μl injections directly onto a C18 80×4.6 mm. The mobile phase was 0.2% trifluoroacetic (TFA):methanol:acetonitrile (70:30):water in a ratio 8:8:84 (v/v/v). The UV detector was set at 215 nm, and quinic acid eluted with a retention of 0.97-1.05 min and nicotinamide at 2.6-2.9 min. The detection limit in urine was about 1.5 mg/ml for quinic acid and for nicotinamide it was 0.015 mg/ml. […] The urine samples were diluted 1:2:4 v/v/v with ethanol and ethyl acetate, and then the ethyl acetate fraction dried, solubilized in 0.2 ml water and used for HPLC analyses with 20 μl injections directly onto a C18 80×4.6 mm. The mobile phase was 70:30 v/v, 0.2% TFA: 30% methanol. The UV detector was set at 225 nm. Tryptophan eluted after 5.2-5.4 min and hippuric acid after 3.1-3.4 min.

[3] = system: indolediamine oxygenase (IDO); assay: IDO activity from tryptophan/kynurenine molar ratio in serum (HPLC); conditions: quinic acid supplementation in vivo; tryptophan and kynurenine in serum
Protocol: Once tryptophan synthesis has been stimulated by the shikimate pathway, it is then further modified by catabolic metabolism via indolediamine oxygenase (IDO) first to kynurenine and/or hydroxtryptophan-serotonin and/or to quinoline-dopamine or to nicotinamde-NAD (energy). The inhibition of IDO activity by quinic acid exposure in vivo favors reduction in immunosuppressive activity. IDO activity was calculated by determining the molar ratios of tryptophan to kynurenine in 200 ul aliquots of 2 M TCA-precipitated serum by high pressure liquid chromatograph (HPLC). The HPLC method has already been published in all its details except the instrument was a HP 1100 series and the column was a XTERRA MSC18 ([…], 4.6 mm×50 mm) (Laich, A, Neurauter, […], Fuchs, D. More rapid method for simultaneous measurement of tryptophan and kyurenine by HPLC. Clinical Chemistry 48 (3): 579-580, 2002). The effect of quinic acid was further characterized on the end products of the shikimate pathway. Accordingly, quinic acid supplementation was analyzed against IDO activity through simultaneous detection of tryptophan and kynurenine. […]

spleen cells = assay: Mouse 21 day drinking water study, spleen cell count; format: in vivo, C57BL/6 female mice; conditions: mice, after day 21 intervention in drinking water; C-Med-100 4 mg/ml (500 mg/kg), quinic acid 2 mg/ml (250 mg/kg)
Protocol: C57BL/6 female mice were fed 4 mg/ml C-Med-100® or 2 mg/ml quinic acid dissolved in autoclaved tap water for 21 days. The animals were sacrificed, spleens removed and blood collected. The cell samples were analyzed in a […] Corporation, Kobe, Japan) and plasma/serum samples prepared for chemical analysis by HPLC for quinic acid and tryptophan.

[4] = Mouse 21 day drinking water study, plasma/serum HPLC; format: in vivo, C57BL/6 female mice; conditions: mice
Protocol: […] The animals were sacrificed, spleens removed and blood collected. The cell samples were analyzed in a […] Corporation, Kobe, Japan) and plasma/serum samples prepared for chemical analysis by HPLC for quinic acid and tryptophan.

[5] = Molar ratio from neutralization of free organic acid with hydroxides; format: physicochemical; conditions: salt or chelate
Protocol: Determination of salts and chelates of some naturally occurring polyhydroxylated and polycarboxylated organic acids are provided in Table 1. Experimental molar ratios were calculated from neutralization to pH=7.5 of free protonated organic acid (H^+) with sodium, potassium or ammonium hydroxides.

[6] = oral human dose 100 mg/kg (50-200 mg/kg); Smith 1982; cited from earlier work

- fraction of total dose taken up into the serum ([1]; in vivo): 0.073%
- quinic acid found in systemic circulation ([1]; in vivo): < 0.1 % of the administered dose
- quinic acid of total dose taken up into the serum ([1]; in vivo): 4.4 mg
- quinic acid either excreted or metabolized ([1]; in vivo, 44 h): 99.9%
- time of maximum uptake of quinic acid into serum ([1]; single oral dose 6000 mg): 10.5 h and 12.5 h
- quinic acid dose excreted unmetabolized in the urine [2]: 40-60%
- IDO activity [3]: inhibits IDO activity
- level of quinic acid, below HPLC detection ([4]; quinic acid 1 mg/ml in drinking water or about 500 mg/kg, 21 days): < 2000 µg/mL
Compound: O=C(O)[C@]1(O)C[C@@H](O)[C@@H](O)[C@H](O)C1 [quinic acid]
- In vivo spleen cells mean ± s.d. (spleen cells): 100 ± 10^c ×10^6
- In vivo plasma tryptophan mean ± s.d. ([4]; after day 21 intervention in drinking water, C-Med-100 4 mg/ml (500 mg/kg)): 79.4 ± 2.7^c μM

- Determination of structure existing in water ([5]; sodium salt): salt
Compound: O=C(O)[C@]1(O)C[C@@H](O)[C@@H](O)[C@H](O)C1 [Quinic acid sodium salt]

- Determination of structure existing in water ([5]; potassium salt): chelate
Compound: O=C(O)[C@]1(O)C[C@@H](O)[C@@H](O)[C@H](O)C1 [Quinic acid potassium salt]

Compound: N[C@@H](Cc1c[nH]c2ccccc12)C(=O)O [Therapeutic tryptophan, tryptophan]
- Urinary excretion daily sample, Tryptophan (avg) [6]: Tryptophan. = 1.3 mg/liter^c

- Determination of structure existing in water [5]: Chelate
Compound: N.N.N.O=C(O)CC(O)(C(=O)O)C(O)C(=O)O (centres unmarked) [Hydroxy citric acid ammonium salt]
